Results from US6849598B1, “Therapeutic compositions comprising bactericidal/permeability-increasing (BPI) protein products” (XOMA, priority 1995, dated 2005).
Where two headings read alike, the source gives them in different places.

Legend:
P. aeruginosa = experiment: Antibiotic susceptibility (MIC, Sensititre Trays) with rBPI21 poloxamer formulations; type: cell-based; details: for MIC: Pseudomonas aeruginosa, read-out: Minimum Inhibitory Concentration
A. baumannii = experiment: as above; type: cell-based; details: for MIC: Acinetobacter baumannii, read-out: Minimum Inhibitory Concentration
[1] = CSMHB, 16 μg/mL rBPI21 with F68
[2] = CSMHB, 16 μg/mL rBPI21 with P103
[3] = CSMHB, 16 μg/mL rBPI21 with P104
[4] = CSMHB, 16 μg/mL rBPI21 with P105
[5] = CSMHB, 16 μg/mL rBPI21 with P123
[6] = Serum, 16 μg/mL rBPI21 with F68
[7] = Serum, 16 μg/mL rBPI21 with P103
[8] = Serum, 16 μg/mL rBPI21 with P104
[9] = Serum, 16 μg/mL rBPI21 with P105
[10] = Serum, 16 μg/mL rBPI21 with P123

O=C(N[C@H](CO)[C@H](O)c1ccc([N+](=O)[O-])cc1)C(Cl)Cl [Chloramphenicol]
S: susceptibility interpretation of MIC (superscript) (A. baumannii; [1]) | susceptibility interpretation of MIC (superscript) (A. baumannii; [2]) | susceptibility interpretation of MIC (superscript) (A. baumannii; [3]) | susceptibility interpretation of MIC (superscript) (A. baumannii; [4]) | susceptibility interpretation of MIC (superscript) (A. baumannii; [5]) | susceptibility interpretation of MIC (superscript) (A. baumannii; [7])
> 4 µg/mL: MIC (A. baumannii; CSMHB, Control (no BPI)) | MIC (A. baumannii; [6]) | MIC (A. baumannii; [9]) | MIC (A. baumannii; [10]) | MIC (A. baumannii; Serum, Control (no BPI))
< 0.5 µg/mL: MIC (A. baumannii; [2]) | MIC (A. baumannii; [4]) | MIC (A. baumannii; [5])
1 µg/mL: MIC (A. baumannii; [1]) | MIC (A. baumannii; [3])
R: susceptibility interpretation of MIC (superscript) (P. aeruginosa; [1]) | susceptibility interpretation of MIC (superscript) (P. aeruginosa; [3]) | susceptibility interpretation of MIC (superscript) (P. aeruginosa; CSMHB, Control (no BPI)) | susceptibility interpretation of MIC (superscript) (P. aeruginosa; [6]) | susceptibility interpretation of MIC (superscript) (P. aeruginosa; Serum, Control (no BPI)) | susceptibility interpretation of MIC (superscript) (A. baumannii; CSMHB, Control (no BPI)) | susceptibility interpretation of MIC (superscript) (A. baumannii; [6]) | susceptibility interpretation of MIC (superscript) (A. baumannii; [8]) | susceptibility interpretation of MIC (superscript) (A. baumannii; [9]) | susceptibility interpretation of MIC (superscript) (A. baumannii; [10]) | susceptibility interpretation of MIC (superscript) (A. baumannii; Serum, Control (no BPI))
> 32 µg/mL: MIC (P. aeruginosa; [1]) | MIC (P. aeruginosa; [3]) | MIC (P. aeruginosa; CSMHB, Control (no BPI)) | MIC (P. aeruginosa; [6]) | MIC (P. aeruginosa; Serum, Control (no BPI))
4 µg/mL: MIC (A. baumannii; [8])
I: susceptibility interpretation of MIC (superscript) (P. aeruginosa; [2]) | susceptibility interpretation of MIC (superscript) (P. aeruginosa; [4]) | susceptibility interpretation of MIC (superscript) (P. aeruginosa; [5]) | susceptibility interpretation of MIC (superscript) (P. aeruginosa; [7]) | susceptibility interpretation of MIC (superscript) (P. aeruginosa; [8]) | susceptibility interpretation of MIC (superscript) (P. aeruginosa; [9]) | susceptibility interpretation of MIC (superscript) (P. aeruginosa; [10])
2 µg/mL: MIC (A. baumannii; [7])
16 µg/mL: MIC (P. aeruginosa; [2]) | MIC (P. aeruginosa; [4]) | MIC (P. aeruginosa; [5]) | MIC (P. aeruginosa; [7]) | MIC (P. aeruginosa; [8]) | MIC (P. aeruginosa; [9]) | MIC (P. aeruginosa; [10])
